Measurements reported in US10227370B2, “Heparan sulfate/heparin mimetics with anti-chemokine and anti-inflammatory activity” (California Institute of Technology, priority 2013, dated 2019).

Key:
Type in all cases: biochemical
[1] = molecular target: T1, FIIa (Homo sapiens, UniProt P01008); assay: Chromogenic assay of anti-FIIa activity in the presence of ATIII, Example 9; conditions: FIG. 12, FIG. 13B
T1 construct: purchased
Procedure: All reagents were prepared according to the manufacturer's instructions and incubated at 37° C. for 15 min. Varying concentrations of heparin, low molecular weight heparin, or glycopolymers (0.0005-500 μg/mL; 40 μL) and ATIII (0.01 IU; 40 μL) were added to a microcentrifuge tube, mixed, and incubated at 37° C. for 2 min. To this, FIIa (1.2 nkat; 40 μL) was added and was incubated at 37° C. for exactly 2 min (stage 1), then FIIa chromogenic substrate (0.05 mmol; 40 μL) was added. Exactly 2 min later (stage 2), the reaction was stopped by introducing citric acid (240 μL; 20 g/L). Absorbance at 405 nm was measured. The sample blank was obtained by mixing the reagents in reverse order from that of the test, i.e. citric acid, […], ATIII, and heparinized sample. The sample blank value was deducted from the absorbance measured for the corresponding assay.

[2] = system: citrated human plasma; assay: Activated partial thromboplastin time (APTT) analysis
Procedure: (§1) Plasma/anticoagulant samples were prepared by mixing 300 μL of the heparin standard or glycopolymer (150 μg/mL) in 0.9% saline and 2.7 mL of citrated human plasma. The tube was inverted 3 times to mix the sample thoroughly. Samples were analyzed by the UCLA Clinical & Translational Research Laboratory using a Sysmex® CA-1500 Coagulation Analyzer (Siemens AG, Erlangen, Germany). Clotting time in the absence of an anticoagulant was determined using 0.9% saline solution water (300 μl). Each clotting assay was performed in triplicate.

[3] = system: citrated human plasma; assay: Prothrombin time (PT) analysis; conditions: 150 μg/mL stock, 300 μL in 2.7 mL citrated human plasma; saline control 13.3 s
Procedure: as §1, with “Samples were” for “Plasma/anticoagulant samples were”, “saline with” for “saline and”, “mL” for “mL of”, “(300 μL).” for “(300 μl).”

[4] = system: FXa; assay: Chromogenic assay of anti-FXa activity in the presence of ATIII, Example 9
Procedure: All reagents were prepared according to the manufacturer's instructions and incubated at 37° C. for 15 min. Varying concentrations of heparin, low molecular weight heparin, Arixtra® or glycopolymers (0.0005-500 μg/mL; 40 μL) and ATIII (0.04 IU; 40 μL) were added to a microcentrifuge tube, mixed, and incubated at 37° C. for 2 min. To this, FXa (0.32 μg; 40 μL) was added and was incubated at 37° C. for exactly 2 min (stage 1), then FXa chromogenic substrate (48 μmol; 40 μL) was added. Exactly 2 min later (stage 2), the reaction was stopped by introducing citric acid (240 μL; 20 g/L solution). Absorbance at 405 nm was measured on a Uvikon XL spectrophotometer. The sample blank was obtained by mixing the reagents in reverse order from that of the test, i.e. citric acid, FXa substrate, FXa, ATIII, and heparinized sample. The sample blank value was deducted from the absorbance measured for the corresponding assay.

CO[C@H]1O[C@H](COS(=O)(=O)O)[C@@H](O[C@@H]2O[C@@H](C(=O)O)[C@@H](O[C@H]3O[C@H](COS(=O)(=O)O)[C@@H](O[C@@H]4O[C@H](C(=O)O)[C@@H](O[C@H]5O[C@H](COS(=O)(=O)O)[C@@H](O)[C@H](O)[C@H]5NS(=O)(=O)O)[C@H](O)[C@H]4O)[C@H](OS(=O)(=O)O)[C@H]3NS(=O)(=O)O)[C@H](O)[C@H]2OS(=O)(=O)O)[C@H](O)[C@H]1NS(=O)(=O)O [Arixtra]
anti-FIIa activity [1]: no appreciable activity | APTT ([2]; 150 μg/mL stock, 300 μL in 2.7 mL citrated human plasma, saline control 31.2 s): 78.3 ± 0.4 s | effect on APTT and PT for clotting compared to the saline control ([2]; same concentration, citrated human plasma): increased only the APTT | PT [3]: 15.1 ± 0.3 s | IC50 [4]: 11 ± 0.1 nM
